From US12329801B2, “Regenerative polypeptides and uses thereof” (JUVENA THERAPEUTICS, INC., priority 2021, dated 2025)

Legend:
DM1 human myoblast = experiment: Myogenic gene expression fold change in DM1 human myoblast; type: cell-based; conditions: 48 h; BMP7 50 ng/mL, Butyrate 100 nM, IGF2 200 ng/mL
Protocol: Myoblasts were cultured 48 h in the presence of factors (BMP7 50 ng/mL, Butyrate 100 nM, IGF2 200 ng/mL).
Myoblasts were cultured 96 h in the presence of factors (IGF2 200 ng/ml). […] Myoblasts were cultured 48 h in the presence of factors (IGF2 200 ng/mL).
IGF2 was tested individually for its ability to promote proliferation and/or fusion of human muscle progenitor cells from an individual with myotonic dystrophy type 1 (hMD)—a muscular dystrophy caused by mutations in the DMPK1 gene. The effect of IGF2 on myogenic activity was assayed in biological triplicate across a range of concentrations centered around expected physiological levels by adding each factor to hMD myoblasts for 72 hours with daily media changes (DMEM +2% horse serum) and a second pulse of factors at the first media change. After 72 or 96 hours, cells were pulsed for 2-5 hours with EdU (30 uM), ethanol fixed, stained with Hoescht 3342, immunostained for proliferation—as measured by the percent of cells staining positive for EdU (% EdU)-, and immunostained for differentiation—as measured by the increase in cellular area staining positive for embryonic myosin heavy chain (% eMyHC) relative to the negative controls, which received media and vehicle only. Wells were imaged on a Keyence BZ-100 at 4×, the images quantified in Cell Profiler, and the statistics were computed in R. Additionally, RNA was extracted from myoblast and select transcript abundances quantified by qPCR.

[1] = Murine pharmacokinetics, intravenous, ELISA, non-compartment analysis; type: in vivo, mice; conditions: mice
Protocol: Murine pharmacokinetics (PK) represents the absorption, distribution, metabolism, and elimination of drugs from the body. The pharmacokinetic profile of the therapeutic polypeptides were determined in mice (10-12 weeks old). Mice were fed ad libitum and housed under controlled conditions of lighting (12-hour light/12-hour dark) and temperature (22-24° C.). Mice were allowed to acclimate for 3 days prior to the initiation of the experiment. Intravenous (IV) injection in 10-12 weeks old mice. Engineered mitogenic polypeptides concentrations in the samples were measured by ELISA. Various pharmacokinetics will be calculated as well as the absorption/elimination dynamics following different routes of administration.

[2] = system: healthy human muscle precursors from person; experiment: In vitro myogenesis assay, healthy human muscle precursors; type: cell-based
Protocol: (§1) Human muscle progenitor cells (early passage myoblasts) were cultured and expanded in growth medium: Ham's F-10 (Gibco), 20% Bovine Growth Serum (Hyclone), 5 ng/mL FGF2 and 1% penicillin-streptomycin on Matrigel coated plates (1:300 matrigel: PBS), at 37° C. and 5% CO2. For experimental conditions, cells were plated at 40,000 cells/well on Matrigel coated 8-well chamber slides in 250-500 μL medium per well (1:100 matrigel: PBS) in human fusion medium: DMEM (Gibco)+2% horse serum (Hyclone). One hour after plating, human myoblasts were treated with 50% respective media: […] myoblasts were cultured for 24 hours in the above conditions, at 37° C. in 10% CO2 incubator. BrdU (300 uM) in DMSO was added for 2 hours prior to fixation with cold 70% ethanol and stored at 4° C. until staining.
(§2) Following permeabilization in PBS+0.25% t-Octylphenoxypolyethoxyethanol (Triton™ X-100), antigen retrieval was performed. Primary staining was performed with primary antibodies including: a species-specific monoclonal antibody for mouse anti-embryonic Myosin Heavy Chain (eMyHC, hybridoma clone 1.652, Developmental Studies Hybridoma Bank) and Rat-anti-BrdU (Abcam Inc. ab6326). […]

[3] = system: human DM1 muscle precursors from person; experiment: In vitro myogenesis assay, human DM1 muscle precursors; type: cell-based; conditions: across a range of test article concentrations
Protocol: as §1, §2

[4] = system: female C57/BL6 (NIA) mice (20 months of age); experiment: Acute injury model (cardiotoxin in tibialis anterior); type: in vivo; conditions: IM 0.4 ug/20 μL every other day, vs vehicle (HSA)
Protocol: The acute injury model of Example 18 was used. […] female C57/BL6 (NIA) mice (20 months of age) were injected intramuscularly (IM) in each tibialis anterior with cardiotoxin at day one (10 ug/20 μL) and from day two the mice were given IM injections every other day with 0.4 ug/20 μL of 6HIS-HSA-IGF2R61A (SEQ ID NO: 34) or vehicle (0.4 ug/20 μL of HSA).

human myoblast cells = experiment: Differentiation of human myoblast cells (MyHC immunostaining, percentage area); type: cell-based; conditions: Fc4 fusions, 96 hours with daily media change, concentration not printed (FIG. 1B)
Protocol: (§3) FIG. 1A: The suspension CHO cells were transiently transfected with the IGF2-hFcm encoding plasmid. IGF2-hFcm was affinity-purified by Protein A membrane column. The purified IGF2-hFcm was added into the culture of human myoblast cells for 96 hours. Myosin heavy chain (MyHC) was immunostained and imaged by a fluorescence microscope.
as §3, with “1B:” for “1A:”, “IGF2-LhFc4” for “IGF2-hFcm”, “hours with daily media change.” for “hours.”
FIG. 2A: The suspension CHO cells were transiently transfected with the HSA-L-IGF2R61A encoding plasmid. HSA-L-IGF2R61A was affinity-purified by Protein A membrane column. […] Myosin heavy chain (MyHC) was immunostained and imaged by a fluorescence microscope.
Suspension CHO cells were transiently transfected with the IGF2-hFcm encoding plasmid. […] After quantification of the stained MyHC, the percentage area of MyHC was calculated as the percent of pixels within the field that are illuminated above background in the stained channel. […] Significance was determined by a p-value less than 0.05 by the one-way ANOVA Tukey Honest Significant Difference test.

## CCCC(=O)[O-].[Na+] [NaBut, sodium butyrate]
DM1 human myoblast
  MYF5 expression fold change compared to FM (vehicle): 1.128
  MYOD1 expression fold change compared to FM (vehicle): 1.095
  MYOG expression fold change compared to FM (vehicle): 1.020

## HSA-IGF2R61A: His tagged HSA fusion IGF2 R61A mutant with a long linker, SEQ ID NO: 34
[1]
  serum half-life compared to the natural sequence of IGF2: significantly improved serum half-life
[2]; across a range of test article concentrations
  activity relative to IGF2 at equimolar concentrations: equal activity
[2]; before or after size exclusion purification via HPLC
  activity relative to HSA-IGF2 at equimolar concentrations: equal or increased activity
[3]
  activity relative to IGF2 at equimolar concentrations: equal activity
[4]
  force production (max contraction rate): increased force production
  force production (specific force-frequency): increased force production
  muscle fatigue (specific fatigue index): reduced muscle fatigue
  muscle mass: increased muscle mass
  regenerative index (number of new fibers per square millimeter): increased regenerative index
  relation rates: improved relation rates

## IGF2-hFc4: Human IGF2-hFc4, SEQ ID NO: 39
Human myoblast cells
  % MyHC: 6.901%
